Where two headings read alike, the source gives them in different places.
Columns and labels:
Type in all cases: cell-based
[1] = test system: A431; test: MTT cytotoxicity assay, A431 (squamous carcinoma); settings: Homo sapiens, A-431
Protocol: (§1) Cell survival after exposure to the sphingolipid metabolite mimetics was examined by MTT cytotoxicity assay. HepG2, A431, HeLa, MCF-7 and SA cells (7000 cells/well) were seeded in each well of a 96-well plate for 24 h. New medium was added to give final concentrations of 0 to 200 μM of the sphingolipid metabolite mimetics. Then, 50 μl of 1 mg/ml 3-(4,5-dimethylthiazol-2-yl)-2,5-diphenyltetrazolium bromide (MTT, Sigma-Aldrich Chemical) was added to each well for 4 h incubation at 37° C. The purple formazan formed was then solubilized by DMSO and absorbance at 570 nm was read by a microplate reader (Molecular Devices, Sunnyvale, Calif.).

[2] = test system: SW480; test: MTT cytotoxicity assay, SW480 (colon cancer); settings: Homo sapiens
[3] = test system: HepG2; test: MTT cytotoxicity assay, HepG2 (liver cancer); settings: Homo sapiens
Protocol: as §1

[4] = test system: SA; test: MTT cytotoxicity assay, SA (pancreatic cancer as headed)
Protocol: as §1

[5] = test system: multiple types of cancer cells; test: MTT cytotoxicity, statements over several cancer cell lines; settings: for direct anti-cancer cell activity: summary statement
Protocol: as §1

[6] = test system: SiHa; test: MTT cytotoxicity assay, SiHa (ovarian cancer as headed); settings: Homo sapiens, Cervical Cancer SiHa
[7] = test system: MCF-7; test: MTT cytotoxicity assay, MCF-7 (breast cancer); settings: Homo sapiens, MCF7; Breast Cancer MCF-7, MTT
Protocol: as §1

[8] = test system: SW620; test: MTT cytotoxicity assay, SW620 (colon cancer); settings: Homo sapiens, SW-620
[9] = test system: cancer cells (TRAIL resistance); test: Sensitization of cancer cells to TRAIL-induced apoptosis, general statements; settings: summary statement
Protocol: (§2) Cell survival after exposure to the anti-tumor agents was examined by MTT cytotoxicity assay. Cells were seeded in each well of a 96-well plate for 24 h. After incubation with various concentrations of compounds, TRAIL, or both for 48 h, the medium was discarded. Then, 50 μl of 1 mg/ml 3-(4,5-dimethylthiazol-2-yl)-2,5-diphenyltetrazolium bromide (MTT, Sigma-Aldrich Chemical) was added to each well for 4 h incubation at 37° C. The purple formazan formed was then solubilized by DMSO and absorbance at 570 nm was read by a microplate reader (Molecular Devices, Sunnyvale, Calif.).

[10] = test system: SW620 cells; test: Drug sensitivity MTT assay with TRAIL, SW620; parameters: scale not given here; settings: for NZJU alone mean value (sensitivity, growth inhibition): drug alone (19-100 μM; TRAIL 100 ng/ml); for NZJU alone mean value (sensitivity, growth inhibition) / combine mean value (sensitivity, growth inhibition): 48 h; for Enhanced mean value: enhancement due to co-administration with TRAIL; for combine mean value (sensitivity, growth inhibition): mimetic at the dose of its row combined with TRAIL 100 ng/ml
Protocol: as §2

[11] = test system: HELA cells; test: Drug sensitivity MTT assay with TRAIL, HELA; parameters: scale not given here; settings: for NZJU alone mean value (sensitivity, growth inhibition): drug alone (19-100 μM; TRAIL 100 ng/ml); for NZJU alone mean value (sensitivity, growth inhibition) / combine mean value (sensitivity, growth inhibition): 48 h; for Enhanced mean value: enhancement due to co-administration with TRAIL; for combine mean value (sensitivity, growth inhibition): mimetic at the dose of its row combined with TRAIL 100 ng/ml
Protocol: as §2

[12] = test system: MCF-7 cells; test: Drug sensitivity MTT assay with TRAIL, MCF-7; parameters: scale not given here; settings: for NZJU alone mean value (sensitivity, growth inhibition): drug alone (19-100 μM; TRAIL 100 ng/ml); for NZJU alone mean value (sensitivity, growth inhibition) / combine mean value (sensitivity, growth inhibition): 48 h; for Enhanced mean value: enhancement due to co-administration with TRAIL; for combine mean value (sensitivity, growth inhibition): mimetic at the dose of its row combined with TRAIL 100 ng/ml
Protocol: as §2

Molecule | IC50 [1] | IC50 [2] | IC50 [3] | IC50 [4] | direct anti-cancer cell activity [5] | IC50 [6] | IC50 [7] | IC50 [8] | further results
CCCCCCCCCCCCCCCCCCNC(=O)[C@@H](NC(=O)/C=C/c1ccccc1)[C@@H](C)O [NZJU26, (E)-N-((2S,3R)-3-hydroxy-1-oxo-1-(octadecylamino)butan-2-yl)-3-phenyl acrylic acid amide] | 177 ± 7.17 µM | 123 µM | 128 ± 9.04 µM | 47.1 ± 0.54 µM | direct anti-cancer cell activity | 35.9 ± 2.64 µM | 39.2 ± 2.21 µM | ≥ 200 µM | 
CCCCCCCCCCCCCCCCCCNC(=O)[C@@H](NC(=O)Cc1c[nH]c2ccccc12)[C@@H](C)O [NZJU29, N-((2S,3R)-3-hydroxy-1-oxo-1-(octadecylamino)butan-2-yl)-indole-3-acetic acid amide] | 31.8 ± 1.93 µM | 60 µM | 57.6 ± 2.69 µM | 54.9 ± 3.9 µM | direct anti-cancer cell activity | 65.8 ± 6.45 µM | 37.3 ± 1.82 µM | 103 ± 7.48 µM | 
CCCCCCCCCCCCCCNC(=O)[C@@H](NC(=O)c1nccc2ccccc12)[C@@H](C)O [NZJU31, N-((2S,3R)-3-hydroxy-1-oxo-1-(tetradecylamino)butan-2-yl)-isoquinoline-1-carboxamide] | 23 ± 3.72 µM | 23.6 µM | 28.6 ± 3.77 µM | 24.4 ± 3.6 µM |  | 21.6 ± 2.26 µM | 22.8 ± 3.94 µM | 30.4 ± 2.09 µM | IC50 ([5]; all five cell lines tested, read-out: IC50 values): < 30 µM
CCCCCCCCCCCCNC(=O)[C@@H](NC(=O)c1cccs1)[C@@H](C)O [NZJU33, N-((2S,3R)-3-hydroxy-1-oxo-1-(dodecylamino)butan-2-yl)-2-thiophene carboxamide] | 16.6 ± 2.12 µM | 30.2 µM | 30.1 ± 3.84 µM | 23.3 ± 3.33 µM | direct anti-cancer cell activity | 23.9 ± 3.65 µM | 30.4 ± 2.8 µM | 29.2 ± 0.57 µM | 
CCCCCCCCCCCCCCCCCCNC(=O)[C@@H](NC(=O)c1cccs1)[C@@H](C)O [NZJU35, N-((2S,3R)-3-hydroxy-1-oxo-1-(octadecylamino)butan-2-yl)-2-thiophene carboxamide] | 33.3 ± 3.32 µM | 89 µM | 92 ± 7.76 µM | 53.5 ± 5.32 µM |  | 117 ± 3.9 µM | 25.7 ± 0.47 µM | ≥ 200 µM | 
CCCCCCCCNC(=O)[C@@H](NC(=O)c1ccccc1)[C@@H](C)O [NZJU39, N-((2S,3R)-3-hydroxy-1-oxo-1-(octylamino)butan-2-yl)-benzamide] | 61.3 ± 4.09 µM | > 200 µM | 136 ± 5.92 µM | 34.6 ± 4.17 µM | direct anti-cancer cell activity | 112 ± 2.43 µM | 111 ± 4.66 µM | ≥ 200 µM | 
CCCCCCCCNC(=O)[C@@H](NC(=O)c1ccco1)[C@@H](C)O [NZJU40, N-((2S,3R)-3-hydroxy-1-oxo-1-(octylamino)butan-2-yl)-Furan-2-carboxamide] | 64.5 ± 0.78 µM | 194 µM | 192 ± 11.1 µM | 64.65 ± 0.5 µM |  | 124 ± 8.78 µM | 91.8 ± 4.21 µM | ≥ 200 µM | 
CCCCCCCCNC(=O)[C@@H](NC(=O)/C=C/c1ccccc1)[C@@H](C)O [NZJU42, (E)-N-((2S,3R)-3-hydroxy-1-oxo-1-(octylamino)butan-2-yl)-3-phenyl acrylic acid amide] | 36 ± 3.36 µM | 62.7 µM | 55.6 ± 0.64 µM | 25.6 ± 4.41 µM |  | 41.4 ± 5.96 µM | 35.06 ± 0.2 µM | 61.35 ± 0.27 µM | 
CCCCCCCCNC(=O)[C@@H](NC(=O)c1cccs1)[C@@H](C)O [NZJU44, N-((2S,3R)-3-hydroxy-1-oxo-1-(octylamino)butan-2-yl)-2-thiophene carboxamide] | 32.1 ± 4.6 µM |  | 149 ± 8.7 µM | 60.9 ± 4.29 µM | direct anti-cancer cell activity | 91.85 ± 0.59 µM | 72.5 ± 3.37 µM | 136 ± 42.6 µM | TRAIL sensitization activity [9]: TRAIL sensitization activity; NZJU alone mean value (sensitivity, growth inhibition) [10]: 0.563; Enhanced mean value [10]: 0.128; combine mean value (sensitivity, growth inhibition) [10]: 0.853; NZJU alone mean value (sensitivity, growth inhibition) [11]: 0.218; Enhanced mean value [11]: 0.357; combine mean value (sensitivity, growth inhibition) [11]: 0.315; NZJU alone mean value (sensitivity, growth inhibition) [12]: 0.625; NZJU alone mean value (sensitivity, growth inhibition) ([12]; listed as NZJU1g): efficient at killing MCF-7 cells; Enhanced mean value [12]: 0.042; combine mean value (sensitivity, growth inhibition) [12]: 0.717
CCCCCCCCNC(=O)[C@@H](NC(=O)c1cc2ccccc2o1)[C@@H](C)O [NZJU45, N-((2S,3R)-3-hydroxy-1-oxo-1-(octylamino)butan-2-yl)-benzofuran-2-carboxamide] | 52.7 ± 3.82 µM |  | 81.3 ± 9.13 µM | 40.8 ± 3.63 µM | direct anti-cancer cell activity | 66.5 ± 2.5 µM | 47.2 ± 7.3 µM | ≥ 200 µM | TRAIL sensitization activity [9]: TRAIL sensitization activity; NZJU alone mean value (sensitivity, growth inhibition) [10]: 0.205; Enhanced mean value [10]: 0.309; combine mean value (sensitivity, growth inhibition) [10]: 0.516; NZJU alone mean value (sensitivity, growth inhibition) [11]: 0.173; Enhanced mean value [11]: 0.223; combine mean value (sensitivity, growth inhibition) [11]: 0.432; NZJU alone mean value (sensitivity, growth inhibition) [12]: 0.021; Enhanced mean value [12]: 0.382; combine mean value (sensitivity, growth inhibition) [12]: 0.538
CCCCCCCCCCCCCCNC(=O)[C@@H](N)[C@@H](C)O [NZJU46, (2S,3R)-2-Amino-3-hydroxy-N-tetradecylbutanamide] | 14.6 ± 0.76 µM |  |  | 11 ± 1.39 µM | direct anti-cancer cell activity | 11 ± 1.39 µM | 10.7 ± 0.98 µM | 18.7 ± 3.81 µM | 
CCCCCCCCCCCCNC(=O)[C@@H](NC(=O)c1cc2ccccc2[nH]1)[C@@H](C)O [NZJU47, N-((2S,3R)-3-hydroxy-1-oxo-1-(dodecylamino)butan-2-yl)-indole-2-carboxamide] | 10.3 ± 2.78 µM | 10.2 ± 0.73 µM | 12 ± 2.38 µM | 12.3 ± 2.75 µM | direct anti-cancer cell activity | 21.25 ± 0.01 µM |  |  | IC50 ([5]; multiple types of cancer cells, read-out: IC50): < 20 µM
CCCCCCCCCCCCCCNC(=O)[C@@H](NS(=O)(=O)c1ccc(C)cc1)[C@@H](C)O [NZJU57, N-((2S,3R)-3-hydroxy-1-oxo-1-(tetradecylamino)butan-2-yl)-4-methylbenzsulfonamide] | 12 ± 1.87 µM | 11.8 ± 1.38 µM | 10.9 ± 0.54 µM | 10.9 ± 1.25 µM | direct anti-cancer cell activity | 19.2 ± 2.14 µM |  |  | 
CCCCCCCCCCCCCCNC(=O)[C@@H](NS(=O)(=O)c1cccs1)[C@@H](C)O [NZJU60, N-((2S,3R)-3-hydroxy-1-oxo-1-(tetradecylamino)butan-2-yl)-2-thiophene sulfonamide] | 22 ± 0.56 µM | 11.8 ± 1.25 µM | 21.6 ± 2.05 µM | 11.6 ± 2.2 µM | direct anti-cancer cell activity | 20.4 ± 2.47 µM |  |  | 
CCCCCCCCCCCCCCNC(=O)[C@@H](NS(=O)(=O)c1ccc2ccccc2c1)[C@@H](C)O [NZJU62, N-((2S,3R)-3-hydroxy-1-oxo-1-(tetradecylamino)butan-2-yl)-2-naphthylsulfonamide] | 19.6 ± 2.16 µM | 5.76 ± 1.02 µM | 11.4 ± 1.11 µM | 10.2 ± 0.3 µM | direct anti-cancer cell activity | 11.1 ± 1.39 µM |  |  | 
TRAIL: TNF-related apoptosis-inducing ligand, a death receptor ligand used as apoptosis-inducing agent (protein, UniProt P50591 1-281, looked up) Tumor necrosis factor ligand …: MAMMEVQGGPSLGQTCVLIVIFTVLLQSLCVAVTYVYFTNELKQMQDKYSKSGIACFLKEDDSYWDPNDEESMNSPCWQVKWQLRQLVRKMILRTSEETISTVQEKQQNISPLVRERGPQRVAAHITGTRGRSNTLSSPNSKNEKALGRKINSWESSRSGHSFLSNLHLRNGELVIHEKGFYYIYSQTYFRFQEEIKENTKNDKQMVQYIYKYTSYPDPILLMKSARNSCWSKDAEYGLYSIYQGGIFELKENDRIFVSVTNEHLIDMDHEASFFGAFLVG |  |  |  |  |  |  |  |  | NZJU alone mean value (sensitivity, growth inhibition) [11]: 0.036; NZJU alone mean value (sensitivity, growth inhibition) [12]: 0.118
